# Measurements published in US12312301B2, “Organosulfur compounds” (MARIPOSA THERAPEUTICS LTD., priority 2018, dated 2025).
# Legend:
# Assay type in all cases: cell-based
# [1] = system: Staphylococcus aureus biofilm formation; test: Minimum Biofilm Inhibition Concentration (MBIC) assay, crystal violet biofilm mass; conditions: for S. aureus MBIC: % of Ajoene positive control IC50: IC50 relative to ajoene run in the same experiment, <100% = more effective than ajoene
# Procedure: (§1) Compounds were assayed for their ability to inhibit S. aureus or P. aeruginosa biofilm formation as follows. All compounds were prepared as a 30 mM stock in DMSO and diluted in TSB to 48 μM (S. aureus) or 144 μM (P. aeruginosa). The compounds were further serially diluted two-fold from 48 μM to 0.75 μM (S. aureus) or 144 μM to 2.3 μM (P. aeruginosa) and added to a 96-well plate at 100 μl per well. Overnight cultures of bacteria were diluted to an OD600=0.07 in fresh TSB and 100 μl of the diluted bacterial culture was added to the compound containing wells. The bacteria were incubated in the presence of the compounds overnight at 37° C. After incubation, the planktonic bacteria were removed by three washes using H2O and the remaining biofilm was stained using crystal violet and quantified photometrically at A570. Absorbances corresponding to biofilm mass were plotted versus compound concentration and IC50 values were calculated. Reference: O'Toole GA. Microtiter Dish Biofilm Formation Assay. J. Vis. Exp. (2011).
# (§2) MBIC assays of the compounds are carried out alongside ajoene for reference and standardization. The 1050 of ajoene against S. aureus and P. aeruginosa is well-defined and reproducible allowing ajoene to serve as an effective control for the experiment. As such, the 1050 calculated for the tested compounds are compared to the 1050 of ajoene in every experiment and are therefore represented as % of ajoene.
# (§3) The compound and the other biofilm inhibitory agents were assayed for their inhibitory activity using the MBIC method as described in Example 4. Absorbances corresponding to biofilm mass were plotted versus concentration of compound and other biofilm inhibitory agents.
# [2] = system: Pseudomonas aeruginosa biofilm formation; test: as above; conditions: for P. aeruginosa MBIC: % of Ajoene positive control IC50: IC50 relative to ajoene run in the same experiment, <100% = more effective than ajoene
# Procedure: as §1, §2, §3
# HaCaT cells = test: Scratch closure test; conditions: 5 μM, HaCaT monolayer; for scratch closure observed at 20 h: in line with EGF positive control; for scratch closure compared to vehicle control: P<0.0001 vs 1% DMSO vehicle
# Procedure: HaCaT cells (aneuploidy immortal keratinocyte cell line) were seeded in a 96-well plate at a cell density of 5×10^4 cells per well and incubated overnight at 37° C., 5% CO2 and 95% humidity. Test and control compounds were prepared in 1% DMSO and diluted to a concentration of 5 μM in pre-warmed HaCaT cell media. Cells were washed with pre-warmed PBS and the monolayers mechanically injured by introducing a vertical cell-free area in each individual well, and washed again. Test and control compounds were added and all wells microscopically imaged for time point 0. Cells were incubated as described above and imaged after 20 hours. All conditions were tested with an N of 4 replicates. Scratch closure was analysed using ImageJ software and standard deviation calculated. Scratch closure area reduction was plotted using GraphPrism 8 software.
SMILES,S. aureus MBIC: % of Ajoene positive control IC50 [1],P. aeruginosa MBIC: % of Ajoene positive control IC50 [2],further results
COc1ccc(CSSC=CCS(=O)(=O)Cc2ccccc2)cc1,75 % of Ajoene,56 % of Ajoene,–
COc1ccc(CSS/C=C/CS(=O)(=O)Cc2ccc(C(F)(F)F)cc2)cc1,8.2 % of Ajoene,27.8 % of Ajoene,–
COC(=O)c1ccc(CSS/C=C/CS(=O)(=O)Cc2ccc(C(F)(F)F)cc2)cc1,20.5 % of Ajoene,34.7 % of Ajoene,–
COc1ccccc1CSSC=CCS(=O)(=O)Cc1ccc(C(F)(F)F)cc1,51 % of Ajoene,13.9 % of Ajoene,–
COc1cccc(CSSC=CCS(=O)(=O)Cc2ccc(C(F)(F)F)cc2)c1,20 % of Ajoene,65.3 % of Ajoene,–
COc1ccc(CSSC=CCS(=O)(=O)Cc2ccc(C(F)(F)F)cc2)cc1,24 % of Ajoene,79 % of Ajoene,–
O=S(=O)(CC=CSSCC1CC1)CC1CC1,69.18 % of Ajoene,57.5 % of Ajoene,–
C=CCSS/C=C/C[S+]([O-])CC=C (stereo not shown) [E-ajoene],–,–,scratch closure observed at 20 h (HaCaT cells): complete scratch closure; scratch closure compared to vehicle control (HaCaT cells): enhanced scratch closure
COc1ccc(CSS/C=C\CS(=O)(=O)Cc2ccc(C(F)(F)F)cc2)cc1 [Test compound 3],–,–,scratch closure observed at 20 h (HaCaT cells): complete scratch closure; scratch closure compared to vehicle control (HaCaT cells): enhanced scratch closure
O=S(=O)(CC=CSSCc1ccc(C(F)(F)F)cc1)Cc1ccc(C(F)(F)F)cc1 [drawing 50],28.6 % of Ajoene,45.3 % of Ajoene,–
C[S+]([O-])CCCCN=C=S (stereo not shown) [sulforaphane],–,–,scratch closure observed at 20 h (HaCaT cells): complete scratch closure; scratch closure compared to vehicle control (HaCaT cells): enhanced scratch closure
"O=S(=O)(CC=CSSCc1ccc(C(F)(F)F)cc1)Cc1ccc(C(F)(F)F)cc1 [test compound 1, 1-(trifluoromethyl)-4-{[(3-{[4-(trifluoromethyl)phenyl]methanesulfonyl}prop-1-en-1-yl)disulfanyl]methyl}benzene]",–,–,"IC50 against Staphylococcus aureus biofilm compared to ajoene ([1]; Example 4, FIG. 1, 48 μM to 0.75 μM, overnight 37° C.): lower 1050 than ajoene; IC50 against Pseudomonas aeruginosa biofilm compared to ajoene ([2]; Example 4, FIG. 2, 144 μM to 2.3 μM, overnight 37° C.): lower 1050 than ajoene"
"C=CCSSC=CCS(=O)(=O)Cc1ccc(C(F)(F)F)cc1 [test compound 2, 1-{[-3-(prop-2-en-1-yldisulfanyl)prop-2-ene-1-sulfonyl]methyl}-4-(trifluoromethyl)benzene]",–,–,"inhibitory activity on S. aureus biofilm compared to ajoene, cysteamine, gallium nitrate, HDMF, and C-30 ([1]; Example 6, FIG. 4): improved inhibitory activity; inhibitory activity on P. aeruginosa biofilm compared to ajoene, cysteamine, gallium nitrate, HDMF, and C-30 ([2]; Example 6, FIG. 3): improved inhibitory activity"

# Now from value to molecule, other results behind:
S. aureus MBIC: % of Ajoene positive control IC50 [1],P. aeruginosa MBIC: % of Ajoene positive control IC50 [2],SMILES,further results
4 % of Ajoene,87 % of Ajoene,C=CCSSC=CCS(=O)(=O)Cc1ccc(OC)cc1,–
23 % of Ajoene,82 % of Ajoene,C=CCSSC=CCS(=O)(=O)Cc1ccc(S(C)(=O)=O)cc1,–
7 % of Ajoene,49.2 % of Ajoene,C=CCSSC=CCS(=O)(=O)Cc1ccc(F)cc1,–
55.5 % of Ajoene,78.7 % of Ajoene,C=CCSS/C=C/CS(=O)(=O)Cc1ccc(C(F)(F)F)cc1,–
21.9 % of Ajoene,11.7 % of Ajoene,C=CCSSC=CCS(=O)(=O)Cc1ccco1,–
52 % of Ajoene,29.7 % of Ajoene,C=CCSSC=CCS(=O)(=O)Cc1cccs1,–
38.6 % of Ajoene,42.75 % of Ajoene,C=CCSSC=CCS(=O)(=O)Cc1ccc(C(F)(F)F)cc1 [drawing 51],–
